Data published in patent US7880025B2, “Ruthenium silyl-arene complex , and method for production thereof” (Takasago International Corporation, priority 2009, dated 2011).

Assay: Solubility of [RuCl2(arene)]2 complexes in 100 ml of solvent at 25° C. in various solvents

Substance: [RuCl2(mesitylene)]2
- solubility in 100 ml of solvent, Acetone (solvent Acetone): 0.01 g/100 ml
- solubility in 100 ml of solvent, Chloroform (solvent Chloroform): 0.3 g/100 ml
- solubility in 100 ml of solvent, Methanol (solvent Methanol): 0.03 g/100 ml
- solubility in 100 ml of solvent, THF (solvent THF): 0.5 g/100 ml
- solubility in 100 ml of solvent, Toluene (solvent Toluene): 0.2 g/100 ml
